Consider 2 molecules from article PMC12648310, “Modular Assembled Targeting Chimera Enables Multimodal Targeted Protein Degradation” (JACS Au, 2025).

One series has as its target T1, BRD4 (Homo sapiens, UniProt O60885).
T1 construct: Western blot analysis of BET protein levels was performed across these 11 module assembly combinations; endogenous in cells; host or cells: MDA-MB-231
Description: Immunoblot of BRD4 degradation in MDA-MB-231 cells. The class given is cell-based. Conditions: component without its click partner. On the procedure:
deprotection under General Procedure I, followed by condensation with compound 4 under General Procedure II, yielded AN2-C3-Tz as a purple oil in 60% yield (over two steps from 25).
The full NMR and MS spectra of the synthesized degrader compounds were shown in Appendix A and B, respectively. The degrader compounds were dissolved in DMSO as 10 mM stock solution and stored at -20℃, freeze-thaw cycle was avoided. Inhibitors for bioassays were purchased from […]
Cell culture and drug treatment
The breast cancer cells and leukemia cells used were purchased from Wuhan Purdue Life Technology Co., Ltd. All cell lines were tested for mycoplasma to ensure no contamination. […]
The fluorescence spectrum of POM-dTz was measured using a Hitachi F4500. […]
P0013G) premixed with a protease inhibitor cocktail. […] The supernatant was quantified and adjusted using a bicinchoninic acid (BCA) method and then boiled in an SDS loading buffer. […] After another 3 washes with TBST, the membrane was incubated with an enzymatic chemiluminescence (ECL) reagent, and the signal was detected instantly by a chemiluminescence imager (JP-K600, Jiapeng, Shanghai, China).
The signal values were quantified by ImageJ software. The expression level of a target protein was determined by the ratio of its signal value to GAPDH’s. […]

Series [1] is described as follows: Pharmacokinetics in SD rats. The series is classed as in vivo, Sprague–Dawley (SD) rats. Conditions: for half-life / AUC(0-inf) / AUC(0-t) / Cmax / Tmax / bioavailability / MRT inf / C0 / Vd / clearance: male, Sprague-Dawley, rat, plasma; for MRT inf: read-out: MRTinf_obs; for clearance: read-out: CL_obs. On the procedure:
Given the favorable cellular performance of the POM-dmTz and JQ1-TCO stoichiometric ratio, we further investigated their in vivo pharmacokinetic (PK) profiles (Figure ). […] Blood samples were collected from the jugular vein at 5 min, 15 min, 30 min, 1, 2, 4, 7, and 24 h postdosing for drug concentration analysis.
This pharmacokinetic study protocol used SPF grade male SD rats (6-8 weeks old, weight 200-300g, supplied by a biotechnology company in Beijing) to evaluate the metabolic characteristics of compound GP262 through intravenous injection (IV) and intraperitoneal injection (IP). The IV group received a dose of 5 mg/kg (2.5 mg/mL concentration, 2 mL/kg administration), while the IP group […]
consisted of 3 fasted animals. The IV group solvent was a mixed system containing 10% DMSO, 60% PEG400, and 30% water. Collect whole blood samples at 5 minutes, 15 minutes, 0.5 hours, 1, 2, 4, 7, and 24 hours after administration. Immediately after collection with EDTA-K2 anticoagulant tube, centrifuge at 4 ℃ and 4000 × g for 5 minutes. Separate the plasma and transfer it to an anticoagulant free EP tube. Store it at -75 ± 15 ℃ for testing at ultra-low temperature. Throughout the experiment, a dual drug group parallel control was set up, and standardized operating procedures were used to ensure the timeliness and storage stability of plasma separation, providing standardized biological samples for subsequent LC-MS/MS analysis. […]

Like-named read-outs stand apart in the source and are kept apart here.

As to `Cc1sc2c(c1C)C(c1ccc(Cl)cc1)=NC(CC(=O)NCCNC(=O)OC1CCC=CCCC1)c1nnc(C)n1-2` (stereo not shown) [JQ1-TCO], on BRD4, the “BRD4 degradation by single component alone” value is reported as “neither component alone triggered detectable degradation”. Also, the half-life – broadly, the time needed for the level to fall by half in the phase considered – in series [1] (IP 10 mg/kg) was about 124 min. Besides, in series [1] (IP 20 mg/kg, mean), the AUC(0-inf) (in general, total exposure, with the tail of the curve extrapolated) was found to be 7670 ng·h/mL; the AUC(0-t) (commonly exposure summed from dosing to a finite time, without extrapolation to infinity) was determined as 7660 ng·h/mL; the maximum concentration (Cmax) (usually the maximum level reached in the sampled fluid or tissue) is 1860 ng/mL; the Tmax – broadly, the time at which the peak concentration occurs – turned out to be 25 min. For the same molecule, in series [1] (IP 20 mg/kg, mean), the bioavailability – broadly, dose-corrected exposure relative to a reference, in per cent – was 64%; the half-life was 124 min; the MRT inf is 193 min. Moreover, in series [1] (IV 5 mg/kg, mean), the AUC(0-inf) was found to be 1240 ng·h/mL; the AUC(0-t) stood at 1240 ng·h/mL; the C0 is 2030 ng/mL; the Vd – broadly, a proportionality between amount in the body and measured concentration, not a real space – was 10.3 L/kg. Also, in series [1] (IV 5 mg/kg, mean), the half-life was 118 min, the clearance is 69 mL/min/kg and the MRT inf stood at 44 min.

Take `Cc1nnc(CNC(=O)CCOCC(COCCC(=O)NCc2nnc(C)nn2)NC(=O)COc2cccc3c2C(=O)N(C2CCC(=O)NC2=O)C3=O)nn1` (stereo not shown) [POM-dmTz]: the “BRD4 degradation by single component alone” value at BRD4 is reported as “neither component alone triggered detectable degradation”. For the same molecule, in series [1] (IP 10 mg/kg), the T1/2 entry is “shorter half-life” and the half-life is 22.6 min. Moreover, in series [1] (IP 10 mg/kg, mean), the AUC(0-inf) was 406 ng·h/mL, the AUC(0-t) worked out at 405 ng·h/mL, the peak level (Cmax) was 398 ng/mL and the Tmax came to 25 min. This molecule registered a bioavailability in series [1] (IP 10 mg/kg, mean) of 40.5%. In series [1] (IV 5 mg/kg, mean), this molecule yielded an AUC(0-inf) of 500 ng·h/mL, an AUC(0-t) of 496 ng·h/mL, a C0 of 1850 ng/mL and a Vd of 9.39 L/kg. Also, in series [1] (IV 5 mg/kg, mean), the half-life is 40.2 min, the clearance was found to be 171 mL/min/kg and the MRT inf was 21.3 min.
